Measurements from patent publication US8148424B2, “Tocopherols, tocotrienols, other chroman and side chain derivatives and uses thereof” (Research Development Foundation, priority 1998, dated 2012).
Converted amounts (≈) assume the structure as drawn.

Legend:
A-549 = assay: Bioassay for apoptosis (apoptotic EC50); assay type: cell-based, human; details: Homo sapiens, A549, unit inferred
Method in brief: (§1)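 1.5×10^5 cells/well; overnight attachment; compound 0.01–20 μg/mL, 1/2/3 d. Harvest floating + adherent cells, DAPI and/or TUNEL stain, microscopy. Apoptosis = condensed or fragmented chromatin or TUNEL+; reported as % cells.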

C-170 = assay: Bioassay for apoptosis (apoptotic EC50); assay type: cell-based, human; details: Homo sapiens, C170, C-170; unit inferred
Method in brief: (§2)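 Cells seeded at 1.5×10^5/well, adhered overnight, then exposed to compounds at 0.01–20 μg/mL for 1, 2 and 3 days. Floating plus trypsinised cells were stained with 2 μg/ml DAPI in methanol (15 min, 37° C) and/or TUNEL, and scored microscopically as percent apoptotic cells.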

DLD-1 = assay: Bioassay for apoptosis (apoptotic EC50); assay type: cell-based, human; details: Homo sapiens, unit inferred
Method in brief: as §1

DU-145 = assay: Bioassay for apoptosis (apoptotic EC50); assay type: cell-based, human; details: Homo sapiens, unit inferred
Method in brief: as §1

HL-60 = assay: Bioassay for apoptosis (apoptotic EC50); assay type: cell-based, human; details: HL-60; unit not given; in µg/mL
Method in brief: as §2

HT-29 = assay: Bioassay for apoptosis (apoptotic EC50); assay type: cell-based, human; details: Homo sapiens, unit inferred
Method in brief: as §1

Jurkat = assay: Bioassay for apoptosis (apoptotic EC50); assay type: cell-based, human; details: Homo sapiens, unit inferred
Method in brief: as §1

LnCaP = assay: Bioassay for apoptosis (apoptotic EC50); assay type: cell-based, human; details: Homo sapiens, unit inferred
Method in brief: as §2

MCF-7 = assay: Bioassay for apoptosis (apoptotic EC50); assay type: cell-based, human; details: MCF-7; unit not given; in µg/mL
Method in brief: as §2

MDA-MB-231 = assay: Bioassay for apoptosis (apoptotic EC50); assay type: cell-based, human; details: MDA-MB-231; unit not given; in µg/mL
Method in brief: as §2

MDA-MB-435 = assay: Bioassay for apoptosis (apoptotic EC50); assay type: cell-based, human; details: MDA-MB-435; unit not given; in µg/mL
Method in brief: as §2

ME-180 = assay: Bioassay for apoptosis (apoptotic EC50); assay type: cell-based, human; details: ME-180; unit not given; in µg/mL
Method in brief: as §2

PC-3 = assay: Bioassay for apoptosis (apoptotic EC50); assay type: cell-based, human; details: PC-3; unit not given; in µg/mL
Method in brief: as §2

RL-95-2 = assay: Bioassay for apoptosis (apoptotic EC50); assay type: cell-based, human; details: Homo sapiens, RL95-2, RL-95-2; unit inferred
Method in brief: as §2

HMEC = assay: Bioassay for apoptosis (apoptotic EC50); assay type: cell-based; details: Homo sapiens, unit inferred
Method in brief: as §1

MCF-10A = assay: Bioassay for apoptosis (apoptotic EC50); assay type: cell-based; details: Homo sapiens, unit inferred
Method in brief: as §2

PREC = assay: Bioassay for apoptosis (apoptotic EC50); assay type: cell-based; details: Homo sapiens, unit inferred
Method in brief: as §1

T47D = assay: Bioassay for apoptosis (apoptotic EC50); assay type: cell-based; details: Homo sapiens, unit inferred
Method in brief: as §1

MCF-7 cells = assay: Apoptosis by DAPI staining (Example 8); assay type: cell-based, human; details: Homo sapiens, MCF7, 72 h, 5% serum, DAPI staining at three day treatment
Description: (§3) MDA-MB-435 and MCF-7 cells at 1.5×10^5/well in 12 well plates for apoptosis and 1.5×10^4/well in 96 well plates for DNA synthesis arrest were incubated overnight in culture media and treated with α-tocopherol, α-tocotrinel, compound 1, 6-0-carboxymethyl alpha-tocotrienol (6-0-CM-α-T, 44), and vitamin E succinate (VES) at different concentrations in experimental media (2% serum for MDA-MB-435 cells and 5% serum for MCF-7 cells). DNA synthesis arrest was determined by ^3H-uptake at one day treatment and apoptosis was detected by DAPI staining at three day treatment. EC50 was calculated as the dosage of test compounds that gave 50% growth inhibition.

MDA-MB-435 cells = assay: Apoptosis by DAPI staining (Example 8); assay type: cell-based, human; details: Homo sapiens, 72 h; MDA-MB-435; 2% serum; DAPI staining at three day treatment
Description: as §3

[1] = system: human cancer cells from a wide variety of cell lineages; assay: Apoptosis induction in a battery of tumor cells; assay type: cell-based; details: breast, prostate, leukemia/lymphoid, cervical, ovarian, endometrial, colon, lung cell lines
Method in brief: as §1

[2] = system: Fas/Fas ligand signaling pathway; assay: Fas/Fas ligand apoptotic signaling in Fas resistant tumor cells; assay type: cell-based, human
From the text: Activated Fas/Fas ligand signaling may lead to rapid cell death by apoptosis. Thus, for tumor cells to escape death by Fas/Fas ligand, they must inactivate this most important apoptotic pathway. The mechanism for inactivation of the Fas/Fas ligand signaling pathway by tumor cells varies; however, many tumor cells down regulate the expression of Fas receptor and Fas ligand on their membranes.

[3] = system: Fas ligand on the membrane of LNCaP prostate cells; assay: Fas ligand expression on cell membrane; assay type: cell-based
[4] = system: P21 in MDA-MB-435 human breast cancer cells; assay: P21 expression; assay type: cell-based
From the text: The mechanisms of growth inhibition by DNA synthesis arrest, cell cycle arrest and by induction of cellular differentiation have not been characterized as fully as the mechanism of growth inhibition by apoptosis. […] Tumor cells cultured with the compounds disclosed herein are growth inhibited in the G1 cell cycle phase, undergo morphological changes and express milk lipids, an indication that the cell cycle blocked cells have undergone differentiation.

[5] = Description: Prior to conducting the preclinical chemotherapeutic studies, compound 1 is assayed in non-tumor Balb/c female mice in an effort to establish the maximum tolerated dose. Compound 1 is dissolved in 100% ethanol to establish a stock solution (2 grams of compound 1 in 5 mls of 100% ethanol) and diluted in peanut oil (non vitamin E supplemented) to yield 20, 10, and 5 mg/0.1 ml. RRR-α-tocopherol succinate (VES; the succinate moiety is attached to RRR-α-tocopherol via an ester linkage) was solubilized and diluted as described above to yield 20 mg/0.1 ml/gavage, serving as an additional control. A total of 30 Balb/c female mice were placed into 6 groups (5 mice/group) and supplemented by gavage with compound 1 daily for a total of 23 days. Group 1 mice were non treated and served a s control; group 2 mice were the vehicle control group and received 0.1 ml of vehicle (ethanol+peanut oil equivalent to treatment groups)/mouse/day for a total of 23 days, […] of VES daily for a total of 23 days. Treatment groups […] were gavaged daily for 23 days with 5, 10, and 20 mgs of compound 1.

For Cc1c(C)c2c(c(C)c1OCC(=O)O)CC[C@@](C)(CCC[C@H](C)CCC[C@H](C)CCCC(C)C)O2 [Compound 1, 2,5,7,8-tetramethyl-(2R-(4R,8R,12-trimethyltridecyl)chroman-6-yloxy)acetic acid], the EC50 (A-549) was 10 to 20 mg/L (≈ 20.5 to 40.9 µM), the EC50 (C-170) was 10 to 20 mg/L (≈ 20.5 to 40.9 µM) and the EC50 (DLD-1) was 10 to 20 mg/L (≈ 20.5 to 40.9 µM). The EC50 (DU-145) was 5 to 10 mg/L (≈ 10.2 to 20.5 µM), the “apoptotic EC50” value (HL-60) was 5-10 and the EC50 (HT-29) was 10 to 20 mg/L (≈ 20.5 to 40.9 µM). For the same compound, the EC50 (Jurkat) was 10 to 20 mg/L (≈ 20.5 to 40.9 µM), the EC50 (LnCaP) was 5 to 10 mg/L (≈ 10.2 to 20.5 µM) and the “apoptotic EC50” value (MCF-7) was 5-10. The “apoptotic EC50” value (MDA-MB-231) was 5-10, the “apoptotic EC50” value (MDA-MB-435) was 5-10 and the “apoptotic EC50” value (ME-180) was 1-5. For the same compound, the “apoptotic EC50” value (PC-3) was 5-10, the EC50 (RL-95-2) was 10 to 20 mg/L (≈ 20.5 to 40.9 µM) and the EC50 (HMEC) was > 20 mg/L. The EC50 (MCF-10A) was > 20 mg/L, the EC50 (PREC) was > 20 mg/L and the EC50 (T47D) was > 20 mg/L. For the same compound, the EC50 (MCF-7 cells) was 36 µM, the EC50 (MDA-MB-435 cells) was 30 µM and the “growth inhibitory (apoptotic inducing) properties specific for human cancer cells” value [1] was “effective”. For the same compound, the Fas receptor localisation ([2]; Fas signaling resistant human breast cancer cells) was “transported from the cytoplasm to the membrane”, the “Fas/Fas ligand sensitivity of resistant tumor cells” value ([2]; Fas/Fas ligand resistant tumor cells) was “induce Fas/Fas ligand resistant tumor cells to become Fas/Fas ligand sensitive” and the “anti-Fas triggered apoptosis, co-treatment” value ([2]; human breast and prostate cancer cells, co-treated versus separately) was “synergistic”. The “expression of Fas ligand on the membrane” value [3] was “enhance the expression of Fas ligand”, the “P21 mRNA and protein” value [4] was “up-regulated” and the toxicity upon autopsy ([5]; at completion of the MTD studies) was “no evidence of toxicity”. For the same compound, the “weights of the mice versus VES treated, untreated and vehicle treated controls” value ([5]; mouse, in vivo) was “no significant difference”.
